Tested on: barnyard grass seeds
Test: Petri dish seed germination method: inhibition of root and stem growth of barnyard grass
Format: in vivo
Conditions: 96 hours incubation
Experimental: (§1) Step 2: Accurately weigh 1 mmol cis-p-menthane-1,8-di-Schiff base compounds and cis-p-menthane-1,8-di-secondary amine compounds respectively, dissolve each of them with 0.25 mL DMF, and add a drop of Tween 80 in each resulted solution. After being fully dissolved, each solution is transferred to a 100 mL volumetric flask respectively and then diluted to the mark with distilled water to obtain a solution with a concentration of 10 mmol/L as the mother liquor. The two-fold dilution method is used to prepare diluted solutions with a series of concentrations (the concentrations of DMF and Tween 80 in the diluted solutions are the same as those in the mother liquor).
(§2) Barnyard grass seeds are placed in a 28° C. incubator and are soaked in an appropriate amount of distilled water for 12 hours there. After the clean water is filtered out, the seeds are then placed in the 28° C. incubator for 24 hours to germinate. Spread 2 pieces of filter paper in each of several Petri dishes, and place 10 barnyard grass seeds with the same size in each dish. Repeat each treatment for three times The dishes are divided into two groups: test dishes and control dishes. Add into each test dish 10 mL of the sample solution with the corresponding concentration of the target compound, and add into each control dish the same amount of the mixture of water, DMF and Tween 80 as the blank control. Add 10 seeds to each of the dishes (both test dishes and control dishes), place them in an artificial climate incubator, and incubate them for 96 hours under a temperature of 28° C., an illumination of 5000 1×, a photoperiod of day:night=16:8 and a relative humidity of 70-80%. The experimental data is processed and analyzed with DPS software to calculate the inhibition rate (y) of cis-p-menthane-1,8-di-secondary amine compounds on the root growth or stem growth of barnyard grass seeds.
Wherein, y is the inhibition rate of root growth or stem growth (%), x0 is the root length or stem length of the control, and x1 is the root length or stem length of the sample.
as §1, with “Accurately” for “Step 2: Accurately”, “cis-p-menthane-1,8-bis-(4-chlorophenyl)Schiff” for “cis-p-menthane-1,8-di-Schiff”, “base” for “base compounds”, “cis-p-menthane-1,8-bis-(4-chlorobenzyl)amine” for “cis-p-menthane-1,8-di-secondary amine compounds”, “(5 mmol/L, 2.5 mmol/L, 1.25 mmol/L, 0.625 mmol/L, 0.3125 mmol/L and 0.1563 mmol/L; the” for “(the”
as §2, with “placed in a 30° C. incubator” for “placed in the 28° C. incubator”, “in each Petri dish,” for “in each of several Petri dishes,”, “each Petri dish, and place” for “several Petri dishes, and place”, “with the above corresponding concentration” for “with the corresponding concentration”, “with DPS software.” for “with DPS software to calculate the inhibition rate (y) of cis-p-menthane-1,8-di-secondary amine compounds on the root growth or stem growth of barnyard grass seeds.”

SMILES | inhibition rate on the root growth of barnyard grass seeds (0.15625 mmol/L) | inhibition rate on the stem growth of barnyard grass seeds (0.15625 mmol/L) | inhibition rate on the root growth of barnyard grass seeds (0.3125 mmol/L) | inhibition rate on the stem growth of barnyard grass seeds (0.3125 mmol/L) | inhibition rate on the root growth of barnyard grass seeds (0.625 mmol/L) | inhibition rate on the stem growth of barnyard grass seeds (0.625 mmol/L) | inhibition rate on the root growth of barnyard grass seeds (1.25 mmol/L) | inhibition rate on the stem growth of barnyard grass seeds (1.25 mmol/L) | inhibition rate on the root growth of barnyard grass seeds (2.5 mmol/L) | inhibition rate on the stem growth of barnyard grass seeds (2.5 mmol/L) | inhibition rate on the root growth of barnyard grass seeds (5 mmol/L) | inhibition rate on the stem growth of barnyard grass seeds (5 mmol/L)
CC1(NCc2ccco2)CCC(C(C)(C)NCc2ccco2)CC1 (stereo not drawn) [cis-p-menthane-1,8-bis(furan-2-methyl)amine] | 0% | 0% | 36.3% | 8.6% | 39.0% | 16.1% | 48.8% | 19.3% | 72.7% | 41.1% | 92.7% | 65.3%
CC(C)(NCc1ccccn1)[C@H]1CC[C@@](C)(NCc2ccccn2)CC1 [cis-p-menthane-1,8-bis(pyridine-2-methyl)amine] | 18.9% | 23.8% | 20.5% | 26.4% | 33.8% | 30.1% | 61.0% | 46.6% | 95.8% | 65.3% | 100.0% | 88.0%
CC1(NCc2cccnc2)CCC(C(C)(C)NCc2cccnc2)CC1 (stereo not drawn) [cis-p-menthane-1,8-bis(pyridine-3-methyl)amine] | 5.7% | 38.0% | 10.2% | 30.6% | 19.2% | 41.5% | 41.4% | 44.6% | 86.1% | 65.3% | 95.2% | 84.9%
CC1(NCc2ccncc2)CCC(C(C)(C)NCc2ccncc2)CC1 (stereo not drawn) [cis-p-menthane-1,8-bis(pyridine-4-methyl)amine] | 19.0% | 28.6% | 37.9% | 34.5% | 40.6% | 32.7% | 71.5% | 53.5% | 91.2% | 71.3% | 96.5% | 86.7%
CC1(NCc2ccc[nH]2)CCC(C(C)(C)NCc2ccc[nH]2)CC1 (stereo not drawn) [cis-p-menthane-1,8-bis(pyrrole-2-methyl)amine] | 1.7% | 15.4% | 60.5% | 26.5% | 87.7% | 28.6% | 93.1% | 48.2% | 91.9% | 71.5% | 94.4% | 78.3%
CC1(NCc2cccs2)CCC(C(C)(C)NCc2cccs2)CC1 (stereo not drawn) [cis-p-menthane-1,8-bis(thiophen-2-methyl)amine] | 0.8% | 13.3% | 1.5% | 28.9% | 5.8% | 39.2% | 50.0% | 45.3% | 75.1% | 51.0% | 86.0% | 59.1%
CC1(N=Cc2ccccc2C(F)(F)F)CCC(C(C)(C)N=Cc2ccccc2C(F)(F)F)CC1 (stereo not drawn) [cis-p-menthane-1,8-bis-(2-trifluoromethylbenzyl)Schiff base, reference compound] | – | – | 20.9% | 9% | 15.4% | 13.2% | 2.7% | 17.7% | 20.6% | 12.1% | 34.8% | 21.2%
CC(C)(NCc1ccccc1C(F)(F)F)[C@H]1CC[C@@](C)(NCc2ccccc2C(F)(F)F)CC1 [cis-p-menthane-1,8-bis-(2-trifluoromethylbenzyl)amine] | 51.9% | 36.9% | 57.0% | 43.6% | 68.0% | 49.0% | 93. % | 59.6% | 100% | 87.4% | 100% | 90.3%
CC(C)(N=Cc1ccc(Br)cc1)[C@H]1CC[C@@](C)(N=Cc2ccc(Br)cc2)CC1 [cis-p-menthane-1,8-bis-(4-bromobenzyl)Schiff base, reference compound] | – | – | −3.2% | 6.5% | 28.5% | 19.6% | 46.8% | 42.3% | 72.6% | 39.3% | 69.4% | 55.9%
CC(C)(NCc1ccc(Br)cc1)[C@H]1CC[C@@](C)(NCc2ccc(Br)cc2)CC1 [cis-p-menthane-1,8-bis-(4-bromobenzyl)amine] | 30.7% | 25.2% | 57.6% | 35.4% | 83.4% | 51.7% | 89.6% | 58.5% | 97.4% | 88.2% | 100.0% | 92.3%

Reference: patent US20210161131A1, “cis-p-Menthane-1,8-Di-secondary Amine Compounds as well as Their Preparation Methods and Application in Weed Control” (RESEARCH INSTITUTE OF FORESTRY NEW TECHNOLOGY, CHINESE …, priority 2019, published 2021)
